Source: US7754443B2, “Serum replacement for thyroid hormone-responsive cell culture” (University of Victoria Innovation and Development …, priority 2005, dated 2010)

How the values were obtained:
[1] = tested on: TH receptor β (TRβ) gene expression; assay: TRβ transcript levels by RT-QPCR in XLA cells cultured in serum-containing medium; format: cell-based, Xenopus laevis; settings: 10 nM T3, 2 days, relative to uninduced control
Method: The indicated cell types were plated at a density of 2×10^4 cells/cm^2 and cultured in the presence of medium containing either 10% charcoal stripped fetal calf serum (stripped) or Rana tadpole serum (RTS). […] All values were normalized to an invariant L8 ribosomal protein transcript. A) Relative expression levels of the control cells. B) Fold change of the TRβ transcript levels relative to the control, uninduced cells in accordance with an embodiment. […] The expression of TRβ and GH gene transcripts was analyzed using a MX4000 real-time quantitative polymerase chain reaction system (Stratagene, La Jolla, Calif., USA) as described previously (Crump, Werry et al. 2002) using gene specific primers (for TRβ: UP primer 5'-[NT]; DOWN primer 5'-[NT]; for GH: UP primer 5'-[NT]; DOWN primer 5'-[NT] The annealing temperature was 55° C. A standard curve for each primer pair was generated using the appropriate quantified plasmid DNA containing the target gene sequence. Quadruplicate reactions were performed for each sample and data were averaged and normalized to the expression of the control gene encoding the ribosomal protein L8. […] Total RNA was isolated from these cells and analyzed for the levels of the TRβ gene by reverse transcription quantitative real time polymerase chain reaction (RT-QPCR). […]

[2] = tested on: rat pituitary GH3 cells; assay: TH-induced proliferation of GH3 cells, hemocytometer cell count; format: cell-based; settings: 10 nM T3, all three sera, relative to vehicle controls
Method: FIG. 5 is evidence that serum from other species is suitable for use in thyroid hormone induction experiments with mammalian cells. 3.5×10^4 rat pituitary GH3 cells were plated in duplicate at a density of 2×10^4 cells/cm^2 and cultured in the presence of medium containing either 10% charcoal stripped fetal calf serum (stripped), serum from salmon parr (salmon), or Rana catesbeiana tadpoles (RTS). After 2 days, 10 nM T3 or vehicle control was added and the cells were counted 5 days later after trypsinization on a hemocytometer. The total cell numbers are indicated with vehicle control (white bars) and T3-exposed (black bars) cells in accordance with an embodiment.
Two frog cell lines, XTC-2 cells (Machuca and Tata 1992) and XLA cells (Kanamori and Brown 1993) were obtained from J. Tata and D. Brown, respectively and grown in 70% Liebovitz medium supplemented with 10% bovine growth serum, 100 µg/ml gentamycin sulfate and 10 mM Hepes, pH 7.5 (GIBCO/Invitrogen, Grand Island, N.Y.). These cells were grown at 25° C. in air. The rat pituitary tumor GH3 cell line was obtained from R. T. Zoeller and maintained in Kaighn's modification of Ham's F 12 medium with 2 mM glutamine, 1.5 g/L sodium bicarbonate, 10% fetal bovine serum, 1,000 U/ml penicillin, and 1 mg/ml streptomycin at 37° C. in 5% CO2. […]

[3] = tested on: growth hormone (GH) mRNA transcript; assay: GH transcript levels by RT-QPCR in GH3 cells cultured in serum-containing medium; format: cell-based, rat; settings: 10 nM T3, 2 days, relative to uninduced control
Method: The indicated cell types were plated at a density of 2×10^4 cells/cm^2 and cultured in the presence of medium containing either 10% charcoal stripped fetal calf serum (stripped) or Rana tadpole serum (RTS). […] All values were normalized to an invariant L8 ribosomal protein transcript. A) Relative expression levels of the control cells. B) Fold change of the GH transcript levels relative to the control, uninduced cells in accordance with an embodiment. […] The expression of TRβ and GH gene transcripts was analyzed using a MX4000 real-time quantitative polymerase chain reaction system (Stratagene, La Jolla, Calif., USA) as described previously (Crump, Werry et al. 2002) using gene specific primers (for TRβ: UP primer 5'-[NT]; DOWN primer 5'-[NT]; for GH: UP primer 5'-[NT]; DOWN primer 5'-[NT] The annealing temperature was 55° C. A standard curve for each primer pair was generated using the appropriate quantified plasmid DNA containing the target gene sequence. Quadruplicate reactions were performed for each sample and data were averaged and normalized to the expression of the control gene encoding the ribosomal protein L8.

[4] = tested on: TH receptor β (TRβ) gene expression; assay: TRβ transcript levels by RT-QPCR in XTC-2 cells cultured in serum-containing medium; format: cell-based, Xenopus laevis
Method: The indicated cell types were plated at a density of 2×10^4 cells/cm^2 and cultured in the presence of medium containing either 10% charcoal stripped fetal calf serum (stripped) or Rana tadpole serum (RTS). […] All values were normalized to an invariant L8 ribosomal protein transcript. A) Relative expression levels of the control cells. B) Fold change of the TRβ transcript levels relative to the control, uninduced cells in accordance with an embodiment. […] XTC cells were plated in triplicate at a density of 2×10^4 cells/cm^2 and cultured in the presence of medium containing either 10% charcoal stripped fetal calf serum (CS) or Rana tadpole serum from different premetamorphic (VI, XII) or prometamorphic (XV, XVIII) stages (Taylor and Kollros, 1946). […] All values were normalized to an invariant L8 ribosomal protein transcript. The relative expression levels are indicated with vehicle control (white bars) and T3-exposed (black bars) cells in accordance with an embodiment. FIG. 3 is evidence that serum from other species is suitable for use in thyroid hormone induction experiments. XTC cells were plated at a density of 2×10^4 cells/cm^2 and cultured in the presence of medium containing either 10% charcoal stripped fetal calf serum (stripped), serum from salmon Parr (salmon), or neotenic salamanders (salamander). […] All values were normalized to an invariant L8 ribosomal protein transcript. […]

N[C@@H](Cc1cc(I)c(Oc2ccc(O)c(I)c2)c(I)c1)C(=O)O [T3, 3,5,3′-triiodothyronine]
TRβ mRNA levels on exposure to T3 [1]: increase
GH3 proliferation on exposure to T3 [2]: increased proliferation
GH mRNA levels on exposure to T3 [3]: increase
TRβ levels after addition of T3 ([4]; XTC cells, 10 nM T3, in charcoal stripped serum or RTS of stages VI, XII, XV, XVIII (all cases)): robust elevation
TRβ mRNA levels on exposure to T3 ([4]; XTC-2 cells, 10 nM T3, 2 days, relative to uninduced control): increase
